Laboratory results: ChEMBL document CHEMBL1149595, “Novel isomarabarican triterpenes, exhibiting selective anti-proliferative activity against vascular endothelial cells, from marine sponge Rhabdastrella globostellata” (Bioorg Med Chem, 2007)
Calls of active or inactive are those of the source. No cut-off for these calls is given here.

Tests used:
[1] = tested on: HUVEC; test: Induction of apoptosis assessed as activation of caspase 3 in HUVEC cells at 10 uM after 48 hrs; type: functional, Homo sapiens
[2] = tested on: HUVEC; test: Induction of apoptosis assessed as activation of caspase 3 in HUVEC cells at 1 uM after 48 hrs; type: functional, Homo sapiens
[3] = tested on: HUVEC; test: Induction of apoptosis assessed as activation of caspase 7 in HUVEC cells at 1 uM after 48 hrs; type: functional, Homo sapiens
[4] = tested on: HUVEC; test: Induction of apoptosis assessed as activation of caspase 7 in HUVEC cells at 1 uM after 60 hrs; type: functional, Homo sapiens
[5] = tested on: HUVEC; test: Inhibition of VEGF-induced cell migration in HUVEC at 1.0 uM after 12 hrs; type: functional, cell-based; conditions: Homo sapiens
[6] = biological target: Mitogen-activated protein kinase 3 (Homo sapiens) (UniProt P27361); test: Inhibition of VEGF-induced ERK1 phosphorylation in HUVEC cells after 6 hrs by immunoblotting; type: cell-based
[7] = Growth inhibition of KB3-1 cells after 72 hrs; type: functional, cell-based; conditions: Homo sapiens, KB 3-1, 72 h
[8] = tested on: HUVEC; test: Inhibition of VEGF-induced cell migration in HUVEC at 0.3 uM after 12 hrs; type: functional, cell-based; conditions: Homo sapiens
[9] = biological target: Mitogen-activated protein kinase 1 (Homo sapiens) (UniProt P28482); test: Inhibition of VEGF-induced ERK2 phosphorylation in HUVEC cells after 6 hrs by immunoblotting; type: cell-based
[10] = tested on: HUVEC; test: Induction of apoptosis assessed as activation of caspase 7 in HUVEC cells at 10 uM after 60 hrs; type: functional, Homo sapiens
[11] = Growth inhibition of HUVEC at 1 uM; type: cell-based; conditions: human, HUVEC cells
[12] = tested on: K562; test: Growth inhibition of K562 cells after 72 hrs; type: functional, cell-based; conditions: Homo sapiens, K562, 72 h
[13] = tested on: HUVEC; test: Induction of apoptosis assessed as activation of caspase 3 in HUVEC cells at 10 uM after 60 hrs; type: functional, Homo sapiens
[14] = tested on: K562; test: Selectivity index, ratio of IC50 for K562 cells to IC50 for HUVEC cells; type: functional, Homo sapiens
[15] = tested on: HUVEC; test: Induction of apoptosis assessed as activation of caspase 7 in HUVEC cells at 10 uM after 48 hrs; type: functional, Homo sapiens
[16] = tested on: KB 3-1; test: Induction of apoptosis assessed as activation of caspase 7 in KB3-1 cells at 10 uM; type: functional, cell-based; conditions: Homo sapiens
[17] = tested on: HUVEC; test: Induction of apoptosis assessed as activation of caspase 3 in HUVEC cells at 1 uM after 60 hrs; type: functional, Homo sapiens
[18] = tested on: KB 3-1; test: Induction of apoptosis assessed as activation of caspase 3 in KB3-1 cells at 10 uM; type: functional, cell-based; conditions: Homo sapiens
[19] = tested on: HUVEC; test: Selectivity index, ratio of IC50 for Neuro2A cells to IC50 for HUVEC cells; type: functional, Homo sapiens
[20] = Growth inhibition of Neuro2A cells after 72 hrs; type: functional, cell-based; conditions: N2a
[21] = Growth inhibition of HUVEC at 10 uM; type: cell-based; conditions: human, HUVEC cells
[22] = tested on: HUVEC; test: Growth inhibition of HUVEC cells after 72 hrs; type: functional, cell-based; conditions: Homo sapiens
[23] = tested on: HUVEC; test: Selectivity index, ratio of IC50 for KB3-1 cells to IC50 for HUVEC cells; type: functional, Homo sapiens

Mitogen-activated protein kinase 1 (Homo sapiens), sequence (P28482 whole entry): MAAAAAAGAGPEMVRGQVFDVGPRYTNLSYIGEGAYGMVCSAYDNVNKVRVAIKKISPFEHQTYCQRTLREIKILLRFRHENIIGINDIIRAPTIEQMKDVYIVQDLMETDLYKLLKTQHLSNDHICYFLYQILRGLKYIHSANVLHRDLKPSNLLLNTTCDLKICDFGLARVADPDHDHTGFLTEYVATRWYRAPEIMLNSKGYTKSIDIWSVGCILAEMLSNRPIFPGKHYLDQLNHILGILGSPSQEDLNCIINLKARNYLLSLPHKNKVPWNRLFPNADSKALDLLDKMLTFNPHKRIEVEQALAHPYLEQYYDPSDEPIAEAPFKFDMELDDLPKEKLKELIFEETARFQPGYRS
Mitogen-activated protein kinase 3 (Homo sapiens), sequence (P27361 whole entry): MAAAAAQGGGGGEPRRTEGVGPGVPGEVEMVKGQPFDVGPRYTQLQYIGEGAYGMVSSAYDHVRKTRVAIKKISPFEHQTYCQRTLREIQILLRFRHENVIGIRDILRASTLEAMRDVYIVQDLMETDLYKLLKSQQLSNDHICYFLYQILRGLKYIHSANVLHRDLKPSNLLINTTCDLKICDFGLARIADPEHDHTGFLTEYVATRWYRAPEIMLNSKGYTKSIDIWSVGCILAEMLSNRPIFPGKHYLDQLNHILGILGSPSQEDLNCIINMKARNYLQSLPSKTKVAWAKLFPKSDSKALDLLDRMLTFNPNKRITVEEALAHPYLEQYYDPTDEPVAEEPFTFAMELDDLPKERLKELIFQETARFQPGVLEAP

Which Fold change [1] does the source give for `COC(=O)[C@]1(C)[C@@H]2CC[C@]3(C)\C(=C(C)/C=C/C=C(C)/C=C/C=C(C)C)C(=O)C[C@H]3[C@@]2(C)CC[C@H]1OC(C)=O` here?
Its Fold change is 5.

What about the Fold change [2] of the same compound?
Its Fold change is 5.

What about the Fold change [3] of the same compound?
The Fold change was 17.

What about the Fold change [4] of the same compound?
The Fold change was 45.

What about the Activity [5] of the same compound?
Its Activity is “Active”.

What about the Activity [6] of the same compound?
The Activity was “inactive”.

And the IC50 [7]?
Its IC50 is 14 µM.

What about the Activity [8] of the same compound?
The Activity was “Active”.

And the Activity [9]?
Its Activity is “inactive”.

What about the Fold change [10] of the same compound?
Its Fold change is 45.

What about the inhibition at 1 µM [11] of the same compound?
The inhibition at 1 µM was over 90%.

What about the IC50 [12] of the same compound?
Its IC50 is 23 µM.

And the Fold change [13]?
The Fold change was 13.

And the “Ratio IC50” value [14]?
Its value is 256.

And the Fold change [15]?
Its Fold change is 17.

And the Activity [16]?
Its Activity is “inactive”.

What about the Fold change [17] of the same compound?
Its Fold change is 13.

What about the Activity [18] of the same compound?
The Activity was “inactive”.

What about the “Ratio IC50” value [19] of the same compound?
The value was 83.

And the IC50 [20]?
Its IC50 is 7.5 µM.

And the inhibition at 10 µM [21]?
Its inhibition at 10 µM is over 90%.

For `COC(=O)[C@@]1(C)[C@H](O)CC[C@@]2(C)[C@H]1CC[C@]1(C)\C(=C(C)/C=C/C=C(C)/C=C/C=C(C)C)C(=O)C[C@@H]21`, which IC50 [7] is on record?
The IC50 was 4.9 µM.

What about the IC50 [22] of the same compound?
Its IC50 is 0.19 µM.

And the IC50 [12]?
The IC50 was 5.2 µM.

What about the “Ratio IC50” value [23] of the same compound?
The value was 25.

And the “Ratio IC50” value [14]?
Its value is 27.

What about the “Ratio IC50” value [19] of the same compound?
The value was 31.

And the IC50 [20]?
Its IC50 is 5.9 µM.

What does the source list for `COC(=O)[C@]1(C)[C@@H]2CC[C@]3(C)\C(=C(C)/C=C/C=C(C)/C=C/C=O)C(=O)C[C@H]3[C@@]2(C)CC[C@H]1OC(C)=O` [ACETYLJASPIFERAL B METHYL ESTER]?
IC50 [7]: 16 µM; IC50 [22]: 0.78 µM; IC50 [12]: 7.8 µM; Ratio IC50 [23]: 20; Ratio IC50 [14]: 10; Ratio IC50 [19]: 28; IC50 [20]: 22 µM

Which IC50 [7] does the source give for `CC(=O)O[C@@H]1CC[C@@]2(C)[C@@H](CC[C@]3(C)/C(=C(C)/C=C/C=O)C(=O)C[C@@H]23)[C@@]1(C)C(=O)O` [ACETYLJASPIFERAL E] here?
The IC50 was 28 µM.

And the IC50 [22]?
The IC50 was 2.2 µM.

What about the IC50 [12] of the same compound?
Its IC50 is 32 µM.

What about the “Ratio IC50” value [23] of the same compound?
Its value is 13.

What about the “Ratio IC50” value [14] of the same compound?
The value was 15.

What about the “Ratio IC50” value [19] of the same compound?
Its value is 14.

And the IC50 [20]?
Its IC50 is 34 µM.

For `COC(=O)[C@]1(C)[C@@H]2CC[C@]3(C)C(C(C)CCCC(C)CCCC(C)C)C(=O)C[C@H]3[C@@]2(C)CC[C@H]1OC(C)=O` (stereo partly specified), which IC50 [7] is on record?
Its IC50 is over 100 µM.

And the IC50 [22]?
Its IC50 is over 100 µM.

What about the IC50 [12] of the same compound?
The IC50 was 53 µM.

What about the IC50 [20] of the same compound?
The IC50 was 80 µM.

With `COC(=O)[C@]1(C)[C@@H]2CC[C@]3(C)\C(=C(C)/C=C/C=C(\C)C(/C=C/C(C)(C)O)OC)C(=O)C[C@H]3[C@@]2(C)CC[C@H]1OC(C)=O` (stereo partly specified) as the compound, how does the IC50 [7] read?
Its IC50 is 6.5 µM.

What about the IC50 [22] of the same compound?
Its IC50 is 1.1 µM.

What about the IC50 [12] of the same compound?
The IC50 was 9.3 µM.

What about the “Ratio IC50” value [23] of the same compound?
Its value is 6.

And the “Ratio IC50” value [14]?
Its value is 9.

And the “Ratio IC50” value [19]?
The value was 6.

What about the IC50 [20] of the same compound?
The IC50 was 6 µM.

For `COC(=O)[C@]1(C)[C@@H]2CC[C@]3(C)/C(=C(C)/C=C/C=C(C)\C=C\C=C(C)C)C(=O)C[C@H]3[C@@]2(C)CC[C@H]1OC(C)=O`, which IC50 [7] is on record?
The IC50 was 9.8 µM.

And the IC50 [22]?
Its IC50 is 0.4 µM.

What about the IC50 [12] of the same compound?
The IC50 was 22 µM.

What about the “Ratio IC50” value [23] of the same compound?
The value was 25.

And the “Ratio IC50” value [14]?
The value was 55.

What about the “Ratio IC50” value [19] of the same compound?
Its value is 19.

And the IC50 [20]?
Its IC50 is 7.9 µM.

Which results are given for `COC(=O)[C@]1(C)[C@@H]2CC[C@]3(C)\C(=C(C)/C=C/C=C(C)\C=C\C=C(C)C)C(=O)C[C@H]3[C@@]2(C)CC[C@H]1OC(C)=O`?
IC50 [7]: 18 µM; IC50 [22]: 0.06 µM; IC50 [12]: 22 µM; Ratio IC50 [23]: 200; Ratio IC50 [14]: 360; Ratio IC50 [19]: 75; IC50 [20]: 4.7 µM

With `COC(=O)[C@]1(C)[C@@H]2CC[C@]3(C)/C(=C(C)/C=C/C=C(C)/C=C/C=C(C)C)C(=O)C[C@H]3[C@@]2(C)CC[C@H]1OC(C)=O` as the compound, how does the IC50 [7] read?
The IC50 was 3.1 µM.

What about the IC50 [22] of the same compound?
The IC50 was 0.064 µM.

And the IC50 [12]?
The IC50 was 9 µM.

What about the “Ratio IC50” value [23] of the same compound?
Its value is 48.

What about the “Ratio IC50” value [14] of the same compound?
Its value is 141.

What about the “Ratio IC50” value [19] of the same compound?
The value was 50.

And the IC50 [20]?
Its IC50 is 3.2 µM.

What does the source list for `COC(=O)[C@]1(C)[C@@H]2CC[C@]3(C)\C(=C(C)/C=C/C=C(C)/C=C/C(O)C(C)(C)O)C(=O)C[C@H]3[C@@]2(C)CC[C@H]1OC(C)=O` (stereo partly specified) [GLOBOSTELLATIC ACID F METHYL ESTER]?
IC50 [7]: 8.6 µM; IC50 [22]: 0.98 µM; IC50 [12]: 12 µM; Ratio IC50 [23]: 9; Ratio IC50 [14]: 12; Ratio IC50 [19]: 5; IC50 [20]: 5 µM
